Experiment: clinical use of intranasal oxytocin formulations to treat tinnitus (patient reports, Tinnitus Handicap Inventory)
Assay type: in vivo, human
Source text: In an aspect, this disclosure provides a method for treating tinnitus. The method comprises administering intranasally to an individual a composition comprising or consisting essentially of oxytocin, wherein such administration results in treatment of tinnitus. The effectiveness of treatment of tinnitus may be monitored by quantifying tinnitus, such as by self-evaluation using clinically accepted techniques. An example is the Tinnitus Handicap Inventory (“THI”), a validated and published measurement technique. (Newman et al., Arch Otolaryngol Head Neck Surg, 1996, February 122(2), 143-8). In an embodiment, the improvement in an individual using THI may comprise an improvement of at least 10%. In various embodiments, the improvement may comprise from 10-100%, such as at least 20, 30, 40, 50, 60, 70, 80, 90, 95, or 99%.
This example describes clinical use of the present formulations to treat tinnitus. […] The formulation contained oxytocin, magnesium chloride, citric acid, and sodium citrate in sterile water. […] The dose was then increased to 45 IU (3 sprays of 15 IU) 4 times daily. […] A thickener was then added to the formulation keeping the oxytocin amount the same. […] Their score on the Tinnitus Handicap Inventory reduced from a pretreatment score of 96 (meaning a catastrophic level) to a current score of 14 (meaning mild or no tinnitus). The patient has remained improved over 1 year since initiating therapy. Their current dose is 22.5 IU in each nostril 4 times daily. Since their tinnitus occurs in distinct cycles, at times when tinnitus severity is loudest, they increase the dose to 5 times daily for 2 days. […] Their current handicap inventory is 8.
The dose was increased to 45 IU 4 times daily resulting in a decrease in tinnitus volume by approximately 30%.
In another patient, who developed constant tinnitus after a neck injury one year ago, a dose of 45 IU (22.5 IU in each nostril) 4 times daily was used for 30 days and is still ongoing. It has provided about 15% improvement.
In another patient with constant tinnitus a dose of 30 IU 4 times daily has been started and treatment is ongoing.

[1] = fifth patient, constant tinnitus, 30 IU 4 times daily, after 2 weeks
[2] = first patient, 22.5 IU in each nostril 4 times daily, 5 times daily for 2 days when loudest, past 3 months

With `CC[C@H](C)[C@@H]1NC(=O)[C@H](Cc2ccc(O)cc2)NC(=O)[C@@H](N)CSSC[C@@H](C(=O)N2CCC[C@H]2C(=O)N[C@@H](CC(C)C)C(=O)NCC(N)=O)NC(=O)[C@H](CC(N)=O)NC(=O)[C@H](CCC(N)=O)NC1=O` [oxytocin, Cys-Tyr-Ile-Gln-Asn-Cys-Pro-Leu-Gly (SEQ ID NO:1)] the “time without noticing the tinnitus” value [1] was “several hours per day without noticing the tinnitus”, the tinnitus intensity [1] was “tinnitus intensity has lowered” and the “time patient has remained improved since initiating therapy” value (first patient) was “over 1 year”. For the same molecule, the “longest time without tinnitus” value [2] was no more than 10 days, the tinnitus severity [2] was “reduced tinnitus severity” and the “current handicap inventory (Tinnitus Handicap Inventory)” value (first patient, 22.5 IU in each nostril 4 times daily, 5 times daily for 2 days when loudest, pretreatment 96) was 8. For the same molecule, the “score on the Tinnitus Handicap Inventory” value (first patient, formulation with thickener, pretreatment score 96 (catastrophic level), 14 means mild or no tinnitus) was 14, the tinnitus free period (first patient, thickener added, same oxytocin amount (45 IU 4 times daily)) was “several days of tinnitus free period” and the improvement (fourth patient, constant tinnitus after neck injury, 45 IU (22.5 IU in each nostril) 4 times daily for 30 days) was “about 15%”. The tinnitus volume (fourth patient, dose raised on occasions to 5 times daily) was “diminished tinnitus volume”, the relief of tinnitus (general statement, lower amounts of oxytocin (under 20 IU per day)) was “did not result in any significant relief” and the “time patient remains improved” value (second patient, 45 IU twice daily) was “more than a year”. The benefit (third patient, tinnitus caused by a drug, 30 IU twice daily) was “without benefit” and the “decrease in tinnitus volume” value (third patient, tinnitus caused by a drug, 45 IU 4 times daily) was “approximately 30%”.

Reference: patent US20210060119A1, “OXYTOCIN COMPOSITIONS FOR TREATMENT OF TINNITUS” (New York University, priority 2019, published 2021)
